Assay results reported in patent US11840686B2, “Modulation of prekallikrein (PKK) expression” (Ionis Pharmaceuticals, Inc., priority 2013, dated 2023).
pIC50: −log10 of the molar value. Strand notation (5' to 3'): a small letter for the sugar, then the base; units joined by * are phosphorothioate-linked, units joined directly phosphodiester-linked; [ ] holds rarer units or linkages, { } end groups; capitals alone tell only the bases. e = 2'-O-(2-methoxyethyl) (MOE); [5mC] = 5-methylcytosine; d = 2'-deoxy (DNA)

Columns and labels:
human PKK mRNA [1] = assay: Dose-dependent antisense inhibition of human PKK in HepaRG cells, 0.19-5.00 uM (Example 5); format: cell-based; conditions: for percent inhibition of PKK mRNA, 0.19 μM: 0.19 μM antisense oligonucleotide; for percent inhibition of PKK mRNA, 0.56 μM: 0.56 μM antisense oligonucleotide; for percent inhibition of PKK mRNA, 1.67 μM: 1.67 μM antisense oligonucleotide; for percent inhibition of PKK mRNA, 5.00 μM: 5.00 μM antisense oligonucleotide
Method: Cells were plated at a density of 20,000 cells per well and transfected using electroporation with 0.19 μM, 0.56 μM, 1.67 μM, and 5.00 μM concentrations of antisense oligonucleotide. After a treatment period of approximately 16 hours, RNA was isolated from the cells and PKK mRNA levels were measured by quantitative real-time PCR. Human PKK primer probe set RTS3454 was used to measure mRNA levels. PKK mRNA levels were adjusted according to total RNA content, as measured by RIBOGREEN®. The antisense oligonucleotides were tested in a series of experiments that had similar culture conditions.
The half maximal inhibitory concentration (IC50) of each oligonucleotide is also presented.

human PKK mRNA [2] = assay: Antisense inhibition of human PKK mRNA in HepaRG cells, 5,000 nM (Example 2); format: cell-based
How it was run: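 HepaRG cells (20,000/well) electroporated with 5,000 nM MOE gapmer (phosphorothioate backbone, 5-methylcytosines) and harvested after ~24 h. PKK mRNA measured by qRT-PCR with primer probe set RTS3454, normalized to RIBOGREEN total RNA; percent inhibition versus untreated cells.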

[3] = HepaRG cells, electroporation, approximately 16 hours, Table 35
[4] = 4 point dose response, HepaRG cells, Table 35
[5] = HepaRG cells, electroporation, approximately 16 hours, Table 39
[6] = 4 point dose response, HepaRG cells, Table 39
[7] = Table 13, human PKK mRNA in HepaRG cells, 5-10-5 gapmers
[8] = Table 34, HepaRG, electroporation, ~16 h
[9] = HepaRG cells, electroporation, approximately 16 hours, Table 37
[10] = 4 point dose response, HepaRG cells, Table 37

## 546255 (e[5mC]*eT*eT*eT*eG*dT*dG*d[5mC]*dA*dA*dG*dT*d[5mC]*dT*d[5mC]*eT*eT*eG*eG*e[5mC]; antisense) [compound 546255]
Human PKK mRNA [1]; [3]
  percent inhibition of PKK at 0.19 μM: 32%
  percent inhibition of PKK at 0.56 μM: 35%
  percent inhibition of PKK at 1.67 μM: 78%
  percent inhibition of PKK at 5.00 μM: 87%
Human PKK mRNA [1]; [4]
  pIC50: 6.30
Human PKK mRNA [1]; HepaRG cells
  percent inhibition of PKK mRNA, 0.19 μM: 5%
  percent inhibition of PKK mRNA, 0.56 μM: 39%
  percent inhibition of PKK mRNA, 1.67 μM: 82%
  percent inhibition of PKK mRNA, 5.00 μM: 96%
Human PKK mRNA [1]; HepaRG cells, 0.19-5.00 μM
  pIC50: 6.10
Human PKK mRNA [2]; Table 8, HepaRG cells, electroporation with 5,000 nM antisense oligonucleotide, approx. 24 hours, PKK mRNA by RT-PCR (RTS3454), relative to untreated control cells
  % inhibition: 92%

## 546835 (eT*eA*eA*e[5mC]*eT*d[5mC]*dT*dA*dA*d[5mC]*dA*dG*dT*dA*dT*e[5mC]*eA*e[5mC]*eT*eG; antisense) [compound 546835]
Human PKK mRNA [1]; [5]
  percent inhibition of PKK at 0.19 μM: 9%
  percent inhibition of PKK at 0.56 μM: 35%
  percent inhibition of PKK at 1.67 μM: 68%
  percent inhibition of PKK at 5.00 μM: 93%
Human PKK mRNA [1]; [6]
  pIC50: 6.05
Human PKK mRNA [2]; [7]
  % inhibition: 86%

## 547647 (eG*eT*e[5mC]*e[5mC]*eT*dA*dT*dA*dT*d[5mC]*dA*d[5mC]*dT*dG*dT*eA*e[5mC]*e[5mC]*eT*eA; antisense) [compound 547647]
Human PKK mRNA [1]; [3]
  percent inhibition of PKK at 0.19 μM: 1%
  percent inhibition of PKK at 0.56 μM: 70%
  percent inhibition of PKK at 1.67 μM: 72%
Human PKK mRNA [1]; [4]
  pIC50: 6.10
Human PKK mRNA [2]; human PKK mRNA, HepaRG cells, 5-10-5 motif oligonucleotides targeting SEQ ID NO: 1 and 10
  % inhibition: 92%

## 546188 (antisense e[5mC]*eT*e[5mC]*e[5mC]*eT*dT*dT*dA*dT*dA*dA*dA*dT*dG*dT*e[5mC]*eT*e[5mC]*eG*eA) [compound 546188]
Human PKK mRNA [1]; HepaRG cells, electroporation, approximately 16 hours, Table 41
  percent inhibition of PKK at 5.00 μM: 97%
Human PKK mRNA [1]; 0.19 0μM, HepaRG cells, electroporation, approximately 16 hours, Table 41
  percent inhibition of PKK at 0.19 0μM: 27%
Human PKK mRNA [1]; 0.56 0μM, HepaRG cells, electroporation, approximately 16 hours, Table 41
  percent inhibition of PKK at 0.56 0μM: 69%
Human PKK mRNA [1]; 1.67 1μM, HepaRG cells, electroporation, approximately 16 hours, Table 41
  percent inhibition of PKK at 1.67 1μM: 88%
Human PKK mRNA [1]; 4 point dose response, HepaRG cells, Table 41
  pIC50: 6.40
Human PKK mRNA [1]; [8]
  percent inhibition of PKK at 0.19 μM: 36%
  percent inhibition of PKK at 0.56 μM: 55%
  percent inhibition of PKK at 1.67 μM: 81%
  percent inhibition of PKK at 5.00 μM: 83%
Human PKK mRNA [1]; Table 34, PKK mRNA, HepaRG, electroporation, ~16 h
  pIC50: 6.40
Human PKK mRNA [2]; HepaRG cells, electroporation with 5,000 nM antisense oligonucleotide, approximately 24 hours, PKK mRNA by RT-PCR (RTS3454), relative to untreated control cells, Table 6 experiment
  % inhibition: 95%

## 546847 (eA*e[5mC]*eT*eG*eT*d[5mC]*d[5mC]*dT*dA*dT*dA*dT*d[5mC]*dA*d[5mC]*eT*eG*eT*e[5mC]*e[5mC]; antisense) [compound 546847]
Human PKK mRNA [1]; [9]
  percent inhibition of PKK at 0.19 μM: 39%
  percent inhibition of PKK at 0.56 μM: 57%
  percent inhibition of PKK at 1.67 μM: 75%
  percent inhibition of PKK at 5.00 μM: 89%
Human PKK mRNA [1]; [10]
  pIC50: 6.40
Human PKK mRNA [1]; HepaRG cells
  percent inhibition of PKK mRNA, 0.19 μM: 14%
  percent inhibition of PKK mRNA, 0.56 μM: 44%
  percent inhibition of PKK mRNA, 1.67 μM: 83%
  percent inhibition of PKK mRNA, 5.00 μM: 95%
Human PKK mRNA [1]; HepaRG cells, 0.19-5.00 μM
  pIC50: 6.15
Human PKK mRNA [2]; [7]
  % inhibition: 88%

## 547368 (eG*e[5mC]*eA*eT*e[5mC]*dT*dG*dG*dA*dG*dT*dG*dA*dG*dA*eA*e[5mC]*e[5mC]*e[5mC]*eT; antisense) [compound 547368]
Human PKK mRNA [1]; [9]
  percent inhibition of PKK at 0.19 μM: 0%
  percent inhibition of PKK at 0.56 μM: 0%
  percent inhibition of PKK at 1.67 μM: 31%
  percent inhibition of PKK at 5.00 μM: 80%
Human PKK mRNA [1]; [10]
  pIC50: 5.60
Human PKK mRNA [2]; Table 7, HepaRG cells, electroporation with 5,000 nM antisense oligonucleotide, approx. 24 hours, PKK mRNA by RT-PCR (RTS3454), relative to untreated control cells
  % inhibition: 89%

## 547718 (eA*eT*eA*eA*eA*dG*dT*dG*d[5mC]*dG*dA*dT*dT*dA*dA*eG*e[5mC]*e[5mC]*e[5mC]*e[5mC]; antisense) [compound 547718]
Human PKK mRNA [1]; [5]
  percent inhibition of PKK at 0.19 μM: 36%
  percent inhibition of PKK at 0.56 μM: 12%
  percent inhibition of PKK at 1.67 μM: 69%
  percent inhibition of PKK at 5.00 μM: 74%
Human PKK mRNA [1]; [6]
  pIC50: 5.80
Human PKK mRNA [2]; HepaRG cells, 5,000 nM antisense oligonucleotide, 5-10-5 gapmers, Table 16
  % inhibition: 86%
